Reference: patent publication US5721356A, “Orally active adenosine kinase inhibitors” (Gensia, Inc., priority 1995, dated 1998)
Like-named read-outs stand apart in the source and are kept apart here.

Experiments:
[1] = system: rat cardiomyocytes; settings: cited from earlier work
[2] = system: isolated guinea pig hearts; settings: cited from earlier work
[3] = system: mice; settings: interpreted as skeletal muscle relaxation; cited from earlier work
[4] = system: mice; settings: cited from earlier work
[5] = system: anesthetized rats; settings: cited from earlier work
[6] = system: rat and guinea pig brain slices; settings: cited from earlier work
[7] = system: ischemic cerebral injury; settings: Phillis et al.; cited from earlier work
[8] = system: isolated rat hearts; settings: perfused with 5-iodotubercidin alone, cited from earlier work
[9] = system: dog hearts; settings: cited from earlier work
[10] = system: male SA rats; assay: Anticonvulsant activity, maximal electroshock (MES) model, suppression of hind limb tonic extension; format: in vivo; settings: Rattus norvegicus, 1 h, one hour before seizure testing
[11] = target: T1, partially purified pig heart adenosine kinase (Sus scrofa, UniProt A0A5G2R0F5); assay: Adenosine kinase (AK) inhibition; format: biochemical
T1 construct: partially purified pig heart adenosine kinase; from tissue; host or cells: pig heart
T1 sequence (A0A5G2R0F5 1-362): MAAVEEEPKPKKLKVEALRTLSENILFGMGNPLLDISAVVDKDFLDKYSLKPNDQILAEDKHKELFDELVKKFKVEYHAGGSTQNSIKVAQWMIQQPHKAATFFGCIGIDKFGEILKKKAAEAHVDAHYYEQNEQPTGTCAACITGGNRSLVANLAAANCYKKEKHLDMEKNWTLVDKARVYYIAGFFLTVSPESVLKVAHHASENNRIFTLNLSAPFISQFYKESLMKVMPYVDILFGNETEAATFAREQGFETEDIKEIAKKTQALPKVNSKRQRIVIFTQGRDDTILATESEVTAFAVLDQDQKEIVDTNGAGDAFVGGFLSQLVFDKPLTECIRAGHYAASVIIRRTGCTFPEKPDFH
Description: Adenosine kinase activity was measured essentially as described by Yamada et al. Biochim. Biophys. Acta 660, 36-43 […] with a few minor modifications. Assay mixtures contained 50 mM TRIS-maleate buffer, pH 7.0, 0.1% BSA, 1 mM ATP 1 mM MgCl2, 0.5 μM [U-^14 C]adenosine (400-600 mCi/mmol) and varying duplicate concentrations of inhibitor. The reactions were initiated by addition of approximately 0.1 μU partially purified pig heart adenosine kinase, where one unit is defined as that amount of enzyme required to phosphorylate 1 μmol adenosine per minute. The reactions were incubated for 20 minutes at 37° C. The assay was quenched upon spotting 30 μL aliquots onto 2 cm^2 pieces of Whatman DE81 anion exchange paper. The paper squares were washed for 3 minutes in 6 L distilled/deionized water to remove the unreacted adenosine. […] The amount of ^14 C-AMP was quantified by scintillation counting.

[12] = system: male SA rats; assay: Analgesic activity, hot plate model; format: in vivo; settings: Rattus norvegicus, po
From the text: (§1) Ther., 250:3, 915-922 (1989). See also, Life Sciences 51:171-76 (1992). These models measure pain avoidance and tolerance in response to a regulated stimulus, and compare the response of animals before and after they are given test compound.

[13] = system: carrageenan-induced paw swelling in rats; assay: Anti-inflammatory activity, carrageenan paw swelling; format: in vivo, rat; settings: po, 10 mg/kg, paw swelling 3 hours after carrageenan, vs vehicle
Description: Carrageenan (Type λ) was suspended in sterile PBS at 1% (w/v), autoclaved for 30 minutes, and stored at room temperature. Rats were pretreated with vehicle or AK inhibitor (10 mg/kg) by oral gavage or i.p. administration and the volume of the left hind paw was measured using a water displacement plethysmometer (Stoelting Co., Wood Dale, Ill.). One hour after oral treatment or 30 minutes after i.p. treatment, the rats were briefly anesthetized, and 0.1 ml of the carrageenan solution was injected subcutaneously into the planar surface of the left hind paw. The ensuing paw swelling was measured by plethysmometry after 3 hours. The paw volume in millileters was subtracted from the pre-injection paw volume. Data are presented as the percent inhibition of paw swelling in AK inhibitor treated animals, compared to vehicle treated control animals.

[14] = system: male SA rats; assay: Analgesic activity, tail flick model; format: in vivo; settings: Rattus norvegicus, po
From the text: as §1

[15] = Oral bioavailability in dogs (oral vs intravenous AUC); format: in vivo, dog (female beagles); settings: dog, plasma, 10 mg/kg, read-out: % Oral Availability
Description: Oral bioavailability was determined by comparing the dose corrected areas under the plasma-concentration time curve (AUC) to infinity for the each tested compound, given orally and intravenously in dogs. […] One dog received this solution at an infusion rate of 0.1 mL/min for 20 minutes. The other dog received a 0.2 mL/in infusion for 10 minutes. […] The plasma was separated within 10 minutes of blood collection and was stored frozen. The plasma concentration of compound was then determined for these IV infusions. […] The plasma concentration of compound was determined for this oral administration. The samples were assayed for intact adenosine kinase inhibitor by high performance liquid chromatography (HPLC). An internal standard was added to each test sample and standard sample. Each was then extracted with 10 volumes of 1% v/v dimethylsulfoxide in acetonitrile. […] The dried residue was reconstituted in mobile phase and the contents were analyzed for the adenosine kinase inhibitor (AKI) on HPLC. […] Pharmacokinetic parameters were calculated from the plasma concentration vs. time data, using standard non-compartmental methods. […] et al., Pharmacokinetics., 2[…]. (1983).

[16] = po, fasted, read-out: Anticonvulsant ED50 (MES), po

For `OC[C@H]1O[C@@H](n2cnc3c2NC=NC[C@H]3O)C[C@@H]1O` [2'-deoxycoformycin], the “effect on adenosine release” value ([1]; inhibition of adenosine deaminase alone) is listed as “no effect on adenosine release from the cells”.

In the case of `NC[C@H]1O[C@@H](n2cnc3c(N)ncnc32)[C@H](O)[C@@H]1O` [5'-amino-5'-deoxyadenosine], the “increase in adenosine release” value ([1]; inhibition of ADA together with adenosine kinase) is listed as 6 fold, the “adenosine release effects without ADA inhibition” value ([2]; absence of ADA inhibition) is listed as “not apparent in the absence of ADA inhibition” and the “increase of adenosine release” value ([2]; perfusion medium, in the presence of EHNA) is listed as 15 fold.

For `C[C@H]1O[C@@H](n2cc(I)c3c(N)ncnc32)[C@H](O)[C@@H]1O` [5'-deoxy-5-iodotubercidin], the “flaccidity and spontaneous locomotor activity” value [3] is listed as “pronounced general flaccidity and much-reduced spontaneous locomotor activity in mice”, the hypothermia [4] is listed as “hypothermia in mice” and the “blood pressure and heart rate” value [5] is listed as “decrease blood pressure and heart rate in anesthetized rats”. For the same molecule, the adenosine uptake [6] was “adenosine uptake was reportedly inhibited”.

In the case of `Nc1ncnc2c1c(I)cn2[C@@H]1O[C@H](CO)[C@@H](O)[C@H]1O` [5-iodotubercidin], the “protection against ischemic cerebral injury” value [7] is given as “does not protect against ischemic cerebral injury”, the perfusate adenosine concentration ([8]; hypoxic, anoxic or ischemic conditions) is given as “no increase in perfusate adenosine concentration” and the perfusate adenosine concentration ([8]; normoxic conditions) is given as “no increase in perfusate adenosine concentration”. The “flaccidity and spontaneous locomotor activity” value [3] was “pronounced general flaccidity and much-reduced spontaneous locomotor activity in mice”, the “effects in ischemia and reperfusion model” value [9] was “inconsistent effects” and the hypothermia [4] was “hypothermia in mice”. The “blood pressure and heart rate” value [5] was “decrease blood pressure and heart rate in anesthetized rats” and the adenosine uptake [6] was “adenosine uptake was reportedly inhibited”.

`C[C@H]1O[C@@H](n2cc(-c3ccccc3)c3c(Nc4ccc(F)cc4)ncnc32)[C@H](O)[C@@H]1O` [#1, 4-N-(4-fluorophenyl)amino-5-phenyl-7-(5-deoxy-1-β-D-ribofuranosyl)pyrrolo(2,3-d)pyrimidine] showed an ED50 ([10]; ip, >5 or <5 = fewer or more than 50% inhibited in initial screen at 5 mg/kg ip, read-out: Anticonvulsant ED50 (MES), ip) of 1.9 mg/kg, an ED50 [10, 16] of 5.1 mg/kg and an IC50 [11] of 11 nM. The ED50 [12] was 16.9 mg/kg, the “Carrageenan Paw (% inh)” value [13] was 0.2% and the ED50 [14] was under 10 mg/kg.

With `C[C@H]1O[C@@H](n2cc(-c3ccccc3)c3c(Nc4ccc(C#N)cc4)ncnc32)[C@H](O)[C@@H]1O` [#21, 4-N-(4-cyanophenyl)amino-5-phenyl-7-(5-deoxy-1-β-D-ribofuranosyl)pyrrolo[2,3-d]pyrimidine] the ED50 [10, 16] was over 20 mg/kg, the IC50 [11] was 14 nM and the bioavailability [15] was 23%.
